Experimental data reported in patent US20090145840A1, “BLOOD CELL SEPARATION MEMBRANE AND BLOOD RETENTION TOOL USING THE SAME” (ARKRAY, Inc., priority 2003, published 2009).

Tested on: blood cells
Test: Hemolysis of blood cells on blood retention tool (plasma colored red with Hb)
Type: cell-based
Details: tools of Example 4 / Comparative Example 4; glycine as 5% solution
Description: Blood cell separation was carried out using this tool, and the presence or absence of hemolysis was determined. In the following, unless otherwise stated, the concentration (%) of a hemolysis inhibitor in a hemolysis inhibitor solution is represented by a percentage (unit: (w/v) %) of the weight (unit: g) of the hemolysis inhibitor with respect to the volume (100 ml) of a solvent.
Hemolysis inhibitors were dissolved in solvents (distilled water) beforehand to prepare hemolysis inhibitor solutions shown in Table 1 below. […]
On the glass filter surface of each of the thus-obtained blood retention tools, 100 μl of whole blood (hematocrit: 38%) was dropped to cause the separation of blood cells and plasma and the development of the plasma. Then, after a lapse of 2 minutes, the presence or absence of hemolysis of the blood cells was determined. […]
Blood retention tools (Example 3-1 and 3-2) were produced in the same manner as in Example 1, except that the following development porous membranes (a filter paper and a cellulose acetate membrane) and blood cell separation porous membranes (glass filters) were used and valine was used as the hemolysis inhibitors. […] Using these blood retention tools, blood cell separation was carried out and the presence or absence of hemolysis and the development of blood cells were determined in the same manner as in Examples 1 and 2.

Question: How did the hemolysis turn out when `NCC(=O)O` [Gly, glycine] was run?
Answer: Its hemolysis is “occurrence of hemolysis was observed”.
